# Earlier results, collected in patent publication US6379615B1, “Methods of sterilizing articles” (St. Jude Medical, Inc., priority 2000, dated 2002).
# Conditions: ethanol at about 70 percent by weight; cited from earlier work
smiles,measurement,value
CCO [ethanol],bactericidal effect of ethanol alone,only mildly bactericidal
